We go through three molecules from patent US10155740B2 (F.I.S.—FABBRICA ITALIANA SINTETICI S.P.A., priority 2016, dated 2018).

Molecules are shown by their SMILES. Entries after “also recorded” stand apart in the source; their conditions may differ. Like-named read-outs stand apart in the source and are kept apart here.

The conditions of data set [1]: 37° C., cited from earlier work.
For data set [2] the following is noted: pH 1.2, 4.5 and 6.8, cited from earlier work.
The conditions of data set [3]: cited from earlier work.
Data set [4] in a line: Moisture stability test of Form M (RH 100%, XRPD). In kind it is physicochemical. The following applies: 100% relative humidity, one night, room temperature. As to the method: Pomalidomide Form M was subjected to a moisture stability test. 100 mg of Pomalidomide Form M, prepared as described above, were maintained for one night at 100% relative humidity (RH 100%), at room temperature and analyzed by XRPD.

Data set [5] can be described thus: Relative stability of crystal forms from preparation tests by suspension in solvent. It is filed as physicochemical. The conditions noted are these: suspension in solvent (slurrying) tests. As to the method: The crystal form of Pomalidomide, named Form M, can be prepared by suspension of the form O under stirring for a night in isopropanol (slurrying) after seeding with Form B.
An alternative method for the preparation of Form M prescribes suspending the form O under stirring for four days (slurrying) in dioxane and seeding with Form A, as described in the present experimental part.
1 g of Pomalidomide Form O prepared as in Example 1, was suspended in 20 ml of isopropanol, seeded with crystals of Pomalidomide Form B and stirred overnight at room temperature, giving after filtration and drying, the new Pomalidomide Form M as crystalline powder.

Data set [6] can be described thus: Preliminary solubility study of Pomalidomide Form O in a range of solvents. In kind it is physicochemical. The conditions noted are these: for solubility: thermodynamic from solid. As for the experimental part: A preliminary study of the solubility of Pomalidomide Form O was performed in a range of solvents and under the operating conditions given in the following table 5: […]

For the molecule `Nc1cccc2c1C(=O)N(C1CCC(=O)NC1=O)C2=O` (racemic) [Pomalidomide, (R,S)-4-Amino-2-(2,6-dioxo-3-piperidinyl)-isoindol-1,3-dione], the “Pomalidomide solubility after 24 hours” value in data set [1] (pH 1.2 (0.05N HCl)) is 15.0 µg/mL; in data set [1] (pH 4.5 (0.05M acetato)), 14.6 µg/mL; in data set [1] (pH 6.8 (0.05M fosfato)), 13.2 µg/mL. In addition, the entries for the “solubility of dose in 250 ml of aqueous medium” value in data set [2] (clinical dose of 4 mg) and in data set [2] (dose of 2 mg) were “is not” and “soluble”, respectively. In addition, the “solubility in organic solvents” value in data set [3] (absolute ethanol, ethyl acetate, heptane, methanol, 2-propanol, toluene) is recorded as “very slightly soluble”; in data set [3] (acetone, acetonitrile, methylene chloride, methyl ethyl ketone, THF), “slightly soluble”.
Regarding `Nc1cccc2c1C(=O)N(C1CCC(=O)NC1=O)C2=O` (stereo not shown) [Pomalidomide Form M], the “hygroscopicity / water take-up” value in data set [4] is listed as “did not take-up any water; also recorded: non-hygroscopic”. For the same molecule, the “relative stability of crystal form” value in data set [5] was “higher stability than both Form B and Form O”.
`Nc1cccc2c1C(=O)N(C1CCC(=O)NC1=O)C2=O` (racemic) [Pomalidomide Form O]: in data set [6] (RT), the “solubility in AcOiBu” value was >80 vol RT;, the “solubility in Anisole” value is listed as >80 vol. RT;, the “solubility in CHCl3” value was >80 vol. RT; and the “solubility in DMF” value came out at 26 vol. In data set [6] (RT), the “solubility in DMSO” value was 6 vol, the “solubility in Dioxane” value is given as >80 vol. RT, the “solubility in Et2O” value is recorded as >80 vol. RT; and the “solubility in MIBK” value is >80 vol. RT;. Further, in data set [6] (RT), the “solubility in MeNO2” value is >80 vol. RT; and the “solubility in NMP” value was 8 vol. The solubility in data set [6] (ethanol, organic solvent or mixture, RT, read-out: solubility in EtOH) was < 1000 µg/mL. For the same molecule, in data set [6] (reflux), the “solubility in AcOiBu” value was >80 vol, the “solubility in Anisole” value is >80 vol, the “solubility in CHCl3” value is >80 vol and the “solubility in Dioxane” value was <80 vol. For the same molecule, in data set [6] (reflux), the “solubility in Et2O” value is >80 vol, the “solubility in MIBK” value is given as >80 vol and the “solubility in MeNO2” value is <80 vol. reflux. Moreover, in data set [6] (water, RT, read-out: solubility in H2O), the solubility was < 1000 µg/mL.

The term solubility denotes how much of the substance goes into solution per volume.
